Measurements reported in patent US11051515B2, “3-acyl-benzamides and their use as herbicides” (Bayer Aktiengesellschaft, priority 2017, dated 2021).

Tests used:
SETVI = experiment: Pre-emergence action against SETVI; type: in vivo, Setaria viridis; settings: Setaria viridis, 504 h; pre-emergence, dosage 320 g/ha, scored visually after 3 weeks vs untreated controls; read-out: SETVI (Table B8, pre-emergence herbicidal activity)
Procedure, shortened: (§1)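 Seeds sown in sandy loam in wood-fiber pots and covered with soil. Greenhouse growth; visual damage scored after 3 weeks versus untreated controls (100% = dead, 0% = like control).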

AVEFA [1] = experiment: Pre-emergence action against AVEFA; type: in vivo, Avena fatua; settings: Avena fatua, 504 h, dosage 320 g/ha, scored visually after 3 weeks vs untreated controls, read-out: Pre-emergence action against AVEFA (herbicidal activity)
Procedure, shortened: as §1

POLCO = experiment: Pre-emergence action against POLCO; type: in vivo, Polygonum convolvulus; settings: Fallopia convolvulus, 504 h; Dosage 320 g/ha, pre-emergence
Procedure, shortened: as §1

ABUTH [2] = experiment: Post-emergence action against ABUTH; type: in vivo, Abutilon theophrasti; settings: Abutilon theophrasti, 504 h; post-emergence, dosage 80 g/ha, visual assessment about 3 weeks after treatment vs untreated controls; read-out: Post-emergence action against ABUTH (herbicidal action in percent)
Procedure, shortened: (§2)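 Weeds grown in sandy loam in greenhouse, treated at one-leaf stage (2–3 weeks after sowing) with WP or EC formulations sprayed as aqueous suspension/emulsion at 600 to […] water with 0.2% wetting agent. Visual rating after about 3 weeks versus untreated controls, as % herbicidal action (100% = plants dead, 0% = like control).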

ECHCG [3] = experiment: Post-emergence action against ECHCG; type: in vivo, Echinochloa crus-galli; settings: Echinochloa crus-galli, 504 h; post-emergence, dosage 80 g/ha, visual assessment about 3 weeks after treatment vs untreated controls; read-out: Post-emergence action against ECHCG (herbicidal action in percent)
Procedure, shortened: as §2

MATIN [4] = experiment: Pre-emergence action against MATIN; type: in vivo, Matricaria inodora; settings: Tripleurospermum inodorum, 504 h; Dosage 320 g/ha, pre-emergence
Procedure, shortened: as §1

PHBPU = experiment: Pre-emergence action against PHBPU; type: in vivo, Pharbitis purpurea; settings: Ipomoea purpurea, 504 h; Dosage 320 g/ha, pre-emergence
Procedure, shortened: as §1

STEME = experiment: Post-emergence action against STEME; type: in vivo, Stellaria media; settings: Stellaria media, 504 h; post-emergence, dosage 80 g/ha
Procedure, shortened: as §2

VERPE [5] = experiment: Pre-emergence action against VERPE; type: in vivo, Veronica persica; settings: Veronica persica, 504 h; Dosage 320 g/ha, pre-emergence
Procedure, shortened: as §1

ABUTH [6] = experiment: Pre-emergence action against ABUTH; type: in vivo, Abutilon theophrasti; settings: Abutilon theophrasti, 504 h; pre-emergence, dosage 320 g/ha, scored visually after 3 weeks vs untreated controls; read-out: Pre-emergence action against ABUTH (herbicidal activity)
Procedure, shortened: as §1

VIOTR = experiment: Pre-emergence action against VIOTR; type: in vivo, Viola tricolor; settings: Viola tricolor, 504 h; Dosage 320 g/ha, pre-emergence
Procedure, shortened: as §1

ALOMY [7] = experiment: Post-emergence action against ALOMY; type: in vivo, Alopecurus myosuroides; settings: Alopecurus myosuroides, 504 h; Dosage 80 g/ha, post-emergence
Procedure, shortened: as §2

AVEFA [8] = experiment: Post-emergence action against AVEFA; type: in vivo, Avena fatua; settings: Avena fatua, 504 h; post-emergence, dosage 80 g/ha, visual assessment about 3 weeks after treatment vs untreated controls; read-out: Post-emergence action against AVEFA (herbicidal action in percent)
Procedure, shortened: as §2

VERPE [9] = experiment: Post-emergence action against VERPE; type: in vivo, Veronica persica; settings: Veronica persica, 504 h, dosage 80 g/ha
Procedure, shortened: as §2

CYPES = experiment: Post-emergence action against CYPES; type: in vivo, Cyperus esculentus; settings: Cyperus esculentus, 504 h; post-emergence, dosage 80 g/ha, visual assessment about 3 weeks after treatment vs untreated controls; read-out: Post-emergence action against CYPES (herbicidal action in percent)
Procedure, shortened: as §2

ALOMY [10] = experiment: Pre-emergence action against ALOMY; type: in vivo, Alopecurus myosuroides; settings: Alopecurus myosuroides, 504 h; dosage 320 g/ha; pre-emergence; scored visually after 3 weeks vs untreated controls; 100% = plants have died, 0% = like control plants; read-out: Pre-emergence action against ALOMY (herbicidal activity in percent)
Procedure, shortened: as §1

MATIN [11] = experiment: Post-emergence action against MATIN; type: in vivo, Matricaria inodora; settings: Tripleurospermum inodorum, 504 h; post-emergence, dosage 80 g/ha, visual assessment about 3 weeks after treatment vs untreated controls; read-out: Post-emergence action against MATIN (herbicidal action in percent)
Procedure, shortened: as §2

AMARE = experiment: Pre-emergence action against AMARE; type: in vivo, Amaranthus retroflexus; settings: Amaranthus retroflexus, 504 h; pre-emergence, dosage 320 g/ha, scored visually after 3 weeks vs untreated controls; read-out: Pre-emergence action against AMARE (herbicidal activity)
Procedure, shortened: as §1

ECHCG [12] = experiment: Pre-emergence action against ECHCG; type: in vivo, Echinochloa crus-galli; settings: Echinochloa crus-galli, 504 h; pre-emergence, dosage 320 g/ha, scored visually after 3 weeks vs untreated controls; read-out: Pre-emergence action against ECHCG (herbicidal activity)
Procedure, shortened: as §1

CC(=O)c1c(C(F)(F)F)ccc(C(=O)Nc2nnnn2C)c1Cl [1-137, 3-acetyl-2-chloro-N-(1-methyl-1H-tetrazol-5-yl)-4-(trifluoromethyl)benzamide]
pest or weed control at 320 g/ha (SETVI): 100%
pest or weed control at 320 g/ha (AVEFA [1]): 100%
pest or weed control at 320 g/ha (POLCO): 100%
pest or weed control at 80 g/ha (ABUTH [2]): 90%
pest or weed control at 80 g/ha (ECHCG [3]): 90%
pest or weed control at 320 g/ha (MATIN [4]): 100%
pest or weed control at 320 g/ha (PHBPU): 90%
pest or weed control at 80 g/ha (STEME): 100%
pest or weed control at 320 g/ha (VERPE [5]): 100%
pest or weed control at 320 g/ha (ABUTH [6]): 100%
pest or weed control at 320 g/ha (VIOTR): 100%
pest or weed control at 80 g/ha (ALOMY [7]): 80%
pest or weed control at 80 g/ha (AVEFA [8]): 100%
pest or weed control at 80 g/ha (VERPE [9]): 90%
pest or weed control at 80 g/ha (CYPES): 90%
pest or weed control at 320 g/ha (ALOMY [10]): 90%
pest or weed control at 80 g/ha (MATIN [11]): 90%
pest or weed control at 320 g/ha (AMARE): 100%
pest or weed control at 320 g/ha (ECHCG [12]): 100%

Cn1nnnc1NC(=O)c1ccc(C(F)(F)F)c(C(=O)C2CC2)c1Cl [1-141]
pest or weed control at 320 g/ha (SETVI): 100%
pest or weed control at 320 g/ha (AVEFA [1]): 100%
pest or weed control at 320 g/ha (POLCO): 80%
pest or weed control at 80 g/ha (ABUTH [2]): 100%
pest or weed control at 80 g/ha (ECHCG [3]): 100%
pest or weed control at 320 g/ha (MATIN [4]): 100%
pest or weed control at 320 g/ha (PHBPU): 100%
pest or weed control at 80 g/ha (STEME): 100%
pest or weed control at 320 g/ha (VERPE [5]): 100%
pest or weed control at 320 g/ha (ABUTH [6]): 100%
pest or weed control at 320 g/ha (VIOTR): 100%
pest or weed control at 80 g/ha (ALOMY [7]): 100%
pest or weed control at 80 g/ha (AVEFA [8]): 100%
pest or weed control at 80 g/ha (VERPE [9]): 100%
pest or weed control at 80 g/ha (CYPES): 90%
pest or weed control at 320 g/ha (ALOMY [10]): 100%
pest or weed control at 80 g/ha (MATIN [11]): 90%
pest or weed control at 320 g/ha (AMARE): 100%
pest or weed control at 320 g/ha (ECHCG [12]): 100%

CC(=O)c1c(C(F)F)ccc(C(=O)Nc2nnnn2C)c1Cl [1-164]
pest or weed control at 320 g/ha (SETVI): 100%
pest or weed control at 320 g/ha (AVEFA [1]): 100%
pest or weed control at 320 g/ha (POLCO): 100%
pest or weed control at 80 g/ha (ABUTH [2]): 100%
pest or weed control at 80 g/ha (ECHCG [3]): 100%
pest or weed control at 320 g/ha (MATIN [4]): 100%
pest or weed control at 320 g/ha (PHBPU): 100%
pest or weed control at 80 g/ha (STEME): 90%
pest or weed control at 320 g/ha (VERPE [5]): 100%
pest or weed control at 320 g/ha (ABUTH [6]): 100%
pest or weed control at 320 g/ha (VIOTR): 100%
pest or weed control at 80 g/ha (ALOMY [7]): 90%
pest or weed control at 80 g/ha (AVEFA [8]): 80%
pest or weed control at 80 g/ha (VERPE [9]): 100%
pest or weed control at 80 g/ha (CYPES): 90%
pest or weed control at 320 g/ha (ALOMY [10]): 100%
pest or weed control at 80 g/ha (MATIN [11]): 100%
pest or weed control at 320 g/ha (AMARE): 100%
pest or weed control at 320 g/ha (ECHCG [12]): 100%

Cn1nnnc1NC(=O)c1ccc(C(F)F)c(C(=O)C2CC2)c1Cl [1-168]
pest or weed control at 320 g/ha (SETVI): 100%
pest or weed control at 320 g/ha (AVEFA [1]): 100%
pest or weed control at 320 g/ha (POLCO): 90%
pest or weed control at 80 g/ha (ABUTH [2]): 100%
pest or weed control at 80 g/ha (ECHCG [3]): 100%
pest or weed control at 320 g/ha (MATIN [4]): 100%
pest or weed control at 320 g/ha (PHBPU): 100%
pest or weed control at 80 g/ha (STEME): 100%
pest or weed control at 320 g/ha (VERPE [5]): 100%
pest or weed control at 320 g/ha (ABUTH [6]): 100%
pest or weed control at 320 g/ha (VIOTR): 100%
pest or weed control at 80 g/ha (ALOMY [7]): 100%
pest or weed control at 80 g/ha (AVEFA [8]): 100%
pest or weed control at 80 g/ha (VERPE [9]): 100%
pest or weed control at 80 g/ha (CYPES): 100%
pest or weed control at 320 g/ha (ALOMY [10]): 100%
pest or weed control at 80 g/ha (MATIN [11]): 100%
pest or weed control at 320 g/ha (AMARE): 100%
pest or weed control at 320 g/ha (ECHCG [12]): 100%
